# From patent US9809532B2, “Uses of histone acetyltransferase activators” (THE TRUSTEES OF COLUMBIA UNIVERSITY IN THE CITY OF NEW YORK, priority 2011, dated 2017)
# Where two headings read alike, the source gives them in different places.
# Tests used:
# HDAC10 = molecular target: T1, HDAC10 (Homo sapiens, UniProt Q969S8); assay: HDAC10 activity assay (fluorescence); settings: Compound 1 Log [nM] 4.5; Repeat1/Repeat2
# T1 sequence (Q969S8 1-669): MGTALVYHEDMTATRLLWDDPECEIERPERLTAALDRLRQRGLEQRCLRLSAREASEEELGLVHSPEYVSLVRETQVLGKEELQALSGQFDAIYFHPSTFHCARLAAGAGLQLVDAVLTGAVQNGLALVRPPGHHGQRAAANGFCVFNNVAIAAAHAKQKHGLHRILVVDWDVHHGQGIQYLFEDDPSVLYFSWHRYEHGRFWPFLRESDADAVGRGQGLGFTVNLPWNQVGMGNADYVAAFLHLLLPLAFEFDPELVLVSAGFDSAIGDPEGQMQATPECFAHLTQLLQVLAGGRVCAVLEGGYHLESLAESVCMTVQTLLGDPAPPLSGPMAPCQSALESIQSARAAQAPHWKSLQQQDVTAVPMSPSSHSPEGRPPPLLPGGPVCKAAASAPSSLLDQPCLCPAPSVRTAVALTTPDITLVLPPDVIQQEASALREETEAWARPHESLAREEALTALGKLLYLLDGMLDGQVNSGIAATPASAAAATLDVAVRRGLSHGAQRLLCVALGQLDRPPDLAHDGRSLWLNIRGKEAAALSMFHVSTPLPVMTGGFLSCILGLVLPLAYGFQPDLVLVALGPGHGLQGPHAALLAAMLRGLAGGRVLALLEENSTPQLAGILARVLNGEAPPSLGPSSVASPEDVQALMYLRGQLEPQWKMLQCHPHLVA
# [1] = Pharmacokinetics and BBB penetration after i.p. and i.v. administration (LC-MS/MS); format: in vivo, BALB/c mice; settings: 20 mg/kg; for Kp: brain/plasma
# Description: After i.p. and i.v. administration at 20 mg/kg to BALB/c mice, plasma and brain concentrations were determined by LC-MS/MS.
# HDAC7 = molecular target: T2, HDAC7 (Homo sapiens, UniProt Q8WUI4); assay: HDAC7 activity assay (fluorescence)
# T2 sequence (Q8WUI4 1-952): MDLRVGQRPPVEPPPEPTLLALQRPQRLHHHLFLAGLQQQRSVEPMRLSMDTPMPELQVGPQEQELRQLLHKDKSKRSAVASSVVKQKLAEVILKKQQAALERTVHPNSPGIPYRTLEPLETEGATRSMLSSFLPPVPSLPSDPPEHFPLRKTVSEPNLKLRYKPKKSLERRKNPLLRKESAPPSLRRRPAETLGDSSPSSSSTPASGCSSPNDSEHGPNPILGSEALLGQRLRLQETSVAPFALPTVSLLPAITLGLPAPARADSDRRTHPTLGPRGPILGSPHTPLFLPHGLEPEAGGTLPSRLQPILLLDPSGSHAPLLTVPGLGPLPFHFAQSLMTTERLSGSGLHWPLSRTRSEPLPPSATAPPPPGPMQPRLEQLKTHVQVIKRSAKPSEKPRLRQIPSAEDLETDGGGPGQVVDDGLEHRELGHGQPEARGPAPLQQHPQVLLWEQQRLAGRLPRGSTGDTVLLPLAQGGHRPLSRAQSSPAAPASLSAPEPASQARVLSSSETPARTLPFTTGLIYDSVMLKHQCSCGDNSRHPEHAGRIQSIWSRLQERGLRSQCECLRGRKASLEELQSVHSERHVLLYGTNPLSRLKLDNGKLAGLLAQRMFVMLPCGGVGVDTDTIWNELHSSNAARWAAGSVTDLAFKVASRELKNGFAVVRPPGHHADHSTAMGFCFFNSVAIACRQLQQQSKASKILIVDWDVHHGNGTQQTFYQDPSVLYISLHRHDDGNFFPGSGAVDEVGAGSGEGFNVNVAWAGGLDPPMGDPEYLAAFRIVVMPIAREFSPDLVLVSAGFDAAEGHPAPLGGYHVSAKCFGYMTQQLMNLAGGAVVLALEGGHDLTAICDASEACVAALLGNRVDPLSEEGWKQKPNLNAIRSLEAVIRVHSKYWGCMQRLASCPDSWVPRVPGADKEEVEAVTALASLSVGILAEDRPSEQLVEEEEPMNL
# human p300 = human p300 (Homo sapiens, UniProt Q09472); assay: p300 activation, in vitro assay; format: biochemical
# Sirtuin 2 = molecular target: T3, Sirtuin 2 (Homo sapiens, UniProt Q8IXJ6); assay: Sirtuin 2 activity assay (fluorescence); settings: Compound 1 Log [nM] 4.0; Repeat1/Repeat2
# T3 sequence (Q8IXJ6 1-389): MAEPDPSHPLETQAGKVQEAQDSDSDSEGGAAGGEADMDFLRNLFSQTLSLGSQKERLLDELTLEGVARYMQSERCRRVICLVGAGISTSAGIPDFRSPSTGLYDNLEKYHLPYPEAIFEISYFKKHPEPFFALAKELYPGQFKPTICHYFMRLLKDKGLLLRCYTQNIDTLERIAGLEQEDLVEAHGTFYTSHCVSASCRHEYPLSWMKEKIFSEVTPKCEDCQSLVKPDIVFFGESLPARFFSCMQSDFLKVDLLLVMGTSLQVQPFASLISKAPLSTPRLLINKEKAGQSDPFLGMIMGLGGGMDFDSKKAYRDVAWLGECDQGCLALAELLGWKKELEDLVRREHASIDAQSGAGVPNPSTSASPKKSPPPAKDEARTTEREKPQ
# Chain of human p300 (Q09472 whole entry): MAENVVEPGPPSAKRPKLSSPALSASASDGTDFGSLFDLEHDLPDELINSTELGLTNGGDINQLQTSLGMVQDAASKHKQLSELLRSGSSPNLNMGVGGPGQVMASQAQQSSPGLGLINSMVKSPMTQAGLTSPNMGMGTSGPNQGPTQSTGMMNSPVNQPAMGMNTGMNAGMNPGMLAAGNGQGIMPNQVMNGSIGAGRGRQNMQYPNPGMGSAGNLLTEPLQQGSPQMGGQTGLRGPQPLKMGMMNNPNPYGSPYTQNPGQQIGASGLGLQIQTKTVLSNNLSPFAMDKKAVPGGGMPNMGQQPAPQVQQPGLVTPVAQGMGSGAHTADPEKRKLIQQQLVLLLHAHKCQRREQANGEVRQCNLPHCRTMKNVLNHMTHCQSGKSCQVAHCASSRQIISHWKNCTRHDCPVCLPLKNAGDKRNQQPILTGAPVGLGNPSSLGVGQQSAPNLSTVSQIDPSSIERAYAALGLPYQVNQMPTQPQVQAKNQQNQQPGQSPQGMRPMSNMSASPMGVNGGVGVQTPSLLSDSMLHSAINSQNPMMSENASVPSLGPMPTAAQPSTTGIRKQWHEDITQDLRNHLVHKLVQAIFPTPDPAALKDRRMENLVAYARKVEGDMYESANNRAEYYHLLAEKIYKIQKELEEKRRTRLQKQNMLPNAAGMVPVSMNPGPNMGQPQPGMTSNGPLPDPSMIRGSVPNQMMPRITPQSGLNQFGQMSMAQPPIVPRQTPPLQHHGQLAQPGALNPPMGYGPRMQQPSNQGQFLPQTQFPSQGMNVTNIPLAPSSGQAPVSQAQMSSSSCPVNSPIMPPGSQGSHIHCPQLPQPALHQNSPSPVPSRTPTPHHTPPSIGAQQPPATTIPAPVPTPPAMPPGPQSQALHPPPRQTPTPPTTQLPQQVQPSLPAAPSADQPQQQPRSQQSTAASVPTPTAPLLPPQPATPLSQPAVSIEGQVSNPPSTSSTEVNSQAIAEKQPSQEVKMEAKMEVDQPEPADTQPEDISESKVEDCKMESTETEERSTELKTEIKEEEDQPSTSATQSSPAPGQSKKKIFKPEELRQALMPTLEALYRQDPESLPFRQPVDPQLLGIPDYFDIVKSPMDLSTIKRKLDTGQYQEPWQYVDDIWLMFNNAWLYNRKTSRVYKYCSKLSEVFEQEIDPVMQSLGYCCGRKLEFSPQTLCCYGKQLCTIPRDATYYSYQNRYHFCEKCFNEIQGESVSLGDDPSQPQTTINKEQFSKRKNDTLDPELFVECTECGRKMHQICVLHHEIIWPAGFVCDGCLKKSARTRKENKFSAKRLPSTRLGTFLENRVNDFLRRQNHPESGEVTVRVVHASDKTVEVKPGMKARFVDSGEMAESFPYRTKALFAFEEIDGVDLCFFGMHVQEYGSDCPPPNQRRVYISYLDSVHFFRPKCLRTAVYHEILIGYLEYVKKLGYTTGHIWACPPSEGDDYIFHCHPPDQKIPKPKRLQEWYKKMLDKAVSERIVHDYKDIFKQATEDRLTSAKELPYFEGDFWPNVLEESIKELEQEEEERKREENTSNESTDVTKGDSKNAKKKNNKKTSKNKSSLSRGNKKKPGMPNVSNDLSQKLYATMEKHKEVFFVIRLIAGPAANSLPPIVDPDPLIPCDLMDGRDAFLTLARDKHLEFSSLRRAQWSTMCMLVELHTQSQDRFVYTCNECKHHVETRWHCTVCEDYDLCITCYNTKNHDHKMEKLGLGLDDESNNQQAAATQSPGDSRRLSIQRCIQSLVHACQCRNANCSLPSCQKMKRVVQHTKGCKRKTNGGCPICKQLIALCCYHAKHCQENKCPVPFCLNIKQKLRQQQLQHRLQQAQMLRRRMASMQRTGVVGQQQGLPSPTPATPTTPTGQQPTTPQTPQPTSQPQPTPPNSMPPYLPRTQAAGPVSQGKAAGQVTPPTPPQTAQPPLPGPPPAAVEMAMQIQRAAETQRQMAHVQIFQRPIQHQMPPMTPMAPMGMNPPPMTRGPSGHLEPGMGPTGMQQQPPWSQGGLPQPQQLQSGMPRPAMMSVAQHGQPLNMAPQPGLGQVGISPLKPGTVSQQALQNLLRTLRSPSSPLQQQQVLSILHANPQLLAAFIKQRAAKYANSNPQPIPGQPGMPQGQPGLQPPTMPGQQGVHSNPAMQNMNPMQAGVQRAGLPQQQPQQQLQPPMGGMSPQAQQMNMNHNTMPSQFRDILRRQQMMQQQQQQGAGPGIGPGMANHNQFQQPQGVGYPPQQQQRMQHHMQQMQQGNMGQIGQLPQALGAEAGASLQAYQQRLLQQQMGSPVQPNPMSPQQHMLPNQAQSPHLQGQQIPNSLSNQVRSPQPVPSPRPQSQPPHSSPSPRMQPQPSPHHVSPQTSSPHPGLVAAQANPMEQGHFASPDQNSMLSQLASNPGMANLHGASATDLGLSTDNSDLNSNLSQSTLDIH
compound,measurement,setting,value
CCOc1cccc(OCCN(C)C)c1C(=O)Nc1ccc(Cl)c(C(F)(F)F)c1 [Compound 1],% Activity (HDAC10),HDAC10,102.89%
same,Kp,"[1]; BALB/c, mouse, ip, IP, read-out: AUC0-t ratio brain/plasma",8.2
same,Kp,"[1]; BALB/c, mouse, ip, IP, read-out: AUC0-∞ ratio brain/plasma",8.1
same,Kp,"[1]; BALB/c, mouse, ip, IP, read-out: Cmax ratio brain/plasma",5.8
same,Kp,"[1]; BALB/c, mouse, iv, IV, read-out: AUC0-t ratio brain/plasma",10.8
same,Kp,"[1]; BALB/c, mouse, iv, IV, read-out: AUC0-∞ ratio brain/plasma",11.2
same,Kp,"[1]; BALB/c, mouse, iv, IV, read-out: Cmax ratio brain/plasma",13.1
same,Tmax,"[1]; BALB/c, mouse, intraperitoneal, brain, read-out: Tmax in the brain (converted)",15 min
same,half-life,"[1]; BALB/c, mouse, ip, i.p., brain and plasma, read-out: elimination half-lives in the brain and plasma",~40 min
same,Cmax,"[1]; BALB/c, mouse, IP, brain",4880 ng/g
same,MRT,"[1]; BALB/c, mouse, IP, brain",61.8 min
same,Tmax,"[1]; BALB/c, mouse, IP, brain, read-out: Tmax",15 min
same,half-life,"[1]; BALB/c, mouse, IP, brain, read-out: t½ (converted)",37.8 min
same,AUC(0-inf),"[1]; BALB/c, mouse, IP, plasma",813 ng·h/mL
same,Cmax,"[1]; BALB/c, mouse, IP, plasma",843 ng/mL
same,MRT,"[1]; BALB/c, mouse, IP, plasma",51 min
same,AUC0-t,"[1]; BALB/c, mouse, IP, plasma, read-out: AUC0-t",806 ng·h/mL
same,Tmax,"[1]; BALB/c, mouse, IP, plasma, read-out: Tmax",15 min
same,half-life,"[1]; BALB/c, mouse, IP, plasma, read-out: t½ (converted)",36 min
same,Cmax,"[1]; BALB/c, mouse, IV, brain",27900 ng/g
same,MRT,"[1]; BALB/c, mouse, IV, brain",44.4 min
same,Tmax,"[1]; BALB/c, mouse, IV, brain, read-out: Tmax",7.5 min
same,half-life,"[1]; BALB/c, mouse, IV, brain, read-out: t½ (converted)",37.8 min
same,AUC(0-inf),"[1]; BALB/c, mouse, IV, plasma",2020 ng·h/mL
same,Cmax,"[1]; BALB/c, mouse, IV, plasma",2130 ng/mL
same,MRT,"[1]; BALB/c, mouse, IV, plasma",50.4 min
same,AUC0-t,"[1]; BALB/c, mouse, IV, plasma, read-out: AUC0-t",1970 ng·h/mL
same,Tmax,"[1]; BALB/c, mouse, IV, plasma, read-out: Tmax",7.5 min
same,half-life,"[1]; BALB/c, mouse, IV, plasma, read-out: t½ (converted)",42 min
same,AUC0-t,"[1]; IP, brain",6493 ng·h/g
same,AUC0-∞,"[1]; IP, brain",6564 ng·h/g
same,F,"[1]; IP, brain",29.2%
same,F,"[1]; IP, plasma",41.0%
same,AUC0-t,"[1]; IV, brain",22222 ng·h/g
same,AUC0-∞,"[1]; IV, brain",22581 ng·h/g
same,amount in the brain compared with plasma,[1]; i.p. and i.v.,higher than that in the plasma
same,IC50,HDAC7,> 200000 nM
same,effect on p300 activity,human p300,increases p300 activity
same,EC50,human p300; FIG. 16,790 nM
same,effect on p300 activity,human p300; listed as compound 1,did not interfere with p300
same,% Activity (Sirtuin 2),Sirtuin 2,97.71%
